Results taken from patent US20260373497A1, “MOLECULAR MACHINES STIMULATE INTERCELLULAR CALCIUM WAVES AND CAUSE MUSCLE CONTRACTION” (William Marsh Rice University, priority 2022, published 2026).
Entries after “also recorded” stand apart in the source; their conditions may differ.

What was measured:
[1] = tested on: Hydra vulgaris; assay: Whole-body contraction of Hydra (Protocol II); type: in vivo; details: for Contraction rate compared with light alone: Fisher's Exact Test, MM 2 P<0.00001, MM 1 P=0.0199, MM 3 P=0.5325, MM 4 P=0.0439; for Signaling / contraction in Hydra (summary): in vivo, MM + light; for Contraction peaks relative to sham stimulus: sham light, 0% laser duty cycle
Method: (§1) FIGS. 20A-20N—MM induce ICW and muscle contraction in vivo. (a) Image of a Hydra loaded into a microfluidic chamber with anatomical regions marked. Scale bar is 100 μm and applies to (a-c). (b) MM 1 (24 μM) loaded into Hydra for 24 h. (c) A Hydra expressing GCaMP7b in endodermal epitheliomuscular cells. The stimulation regions used for Protocols I and II are marked. Protocol 1 was used for body column stimulation (1 s pulse to a 10 μm diameter circular area) to trigger regional ICW. Protocol II was used for oral region stimulation (2 s pulse to the oral region, ~1000-2000 μm^2) to trigger whole-body contraction. (d) A regional ICW in a Hydra treated with MM 1 and stimulated with 405-nm light via Protocol I. The indicated times represent the time after stimulation at which the image was taken. Scale bar applies to both images and is 100 μm. (e-i) Responses observed from Hydra treated with (e) MM 1, (f) MM 2, (g) MM 3, (h) MM 4, or (i) DMSO control (“C”) and stimulated for 1 s using Protocol I. Bold, colored traces represent the average trace (n=25 across 5 Hydra). Gray traces represent individual experiments. (j) Bar graph showing ICW response rate and (k) box-and-whisker plot showing ICW delay time of Hydra stimulated using Protocol I across MM treatment conditions (n=25 experiments across at least 5 Hydra per condition). ICW responses were defined as ΔF/F0>1. (1) Representative contraction in a Hydra treated with MM 2 and stimulated via Protocol II. Scale bar applies to both images and is 100 μm. (m) Representative GCaMP7b fluorescence trace in a Hydra treated with MM 2 and stimulated using Protocol II. (n) Bar graph showing contractile response rates across treatment conditions for Hydra stimulated for 2 s using Protocol II (at least 50 experiments across ≥5 Hydra per condition). Error bars in bar graphs represent the standard error of the mean. See Example 6 for more info on the calculation of ICW and contractile response rates. For all plots, cyan lines indicate the time of stimulus with 405-nm light (9.0×10^2 W cm^−2), during which no data was collected. * P-value<0.05, ** P-value<0.01, *** P-value<0.001, **** P-value<0.0001.
(§2) Prior to stimulation experiments, Hydra were loaded with MM by incubating with solutions containing 24 μM of MM for 24 h (FIG. 20B). Distinct stimulation protocols were employed to cause either local ICW or whole-body contraction (FIG. 20C). First, treatment of MM-loaded Hydra with pulses of laser light administered to a small region of the body column (Protocol I) caused ICW emanating from the site of stimulation (FIGS. 20D and 21). Similar to ICW evoked in vitro, these ICW propagated throughout the Hydra body column according to the degree of electrical connectivity of the stimulated cells. Distinct propagation kinetics were observed when stimulating different regions of Hydra simultaneously. Second, MM activation was used to attempt to drive whole-body Hydra contractions by administering laser stimuli to the oral region (Protocol II).
(§3) Hydra Preparation, Stimulation, and Imaging: Hydra were raised in Hydra medium containing CaCl2·2H2O, MgCl2·6H2O, KNO3, NaHCO3, and MgSO4 in deionized water at 18 °C in a light-cycled (12 h light, 12 h dark) incubator. Hydra were fed with an excess of freshly brined Artemia Nauplii (Brine Shrimp Direct, Ogden, UT, #BSEP8Z) three times a week. All experiments were performed at room temperature after starving the animals for 2 days. The transgenic line expressing GCaMP6s under the Actin promoter in neurons was generated by embryonic microinjection by the Yuste lab at Columbia University (Addgene: plasmid #102558). The transgenic line expressing GCaMP7b under the Ef1α promoter in endodermal epitheliomuscular tissue was generated by embryonic microinjection in a collaboration by the Robinson lab (Rice University) and the Juliano Lab (University of California, Davis).
(§4) Hydra were incubated with chosen MM 24 h before imaging. […]

[2] = tested on: Hydra vulgaris; assay: Regional ICW in Hydra (Protocol I); type: in vivo; details: 24 μM MM; for Regional ICW upon body column stimulation: 24 h, 405 nm, 1 s
Method: as §1, §2, §3, §4

CC1Cc2cc(NCCN(C)C)c3ccccc3c2C1=C1c2ccccc2-c2ccccc21 (centres unmarked) [MM 3]
Contraction rate compared with light alone [1]: did not elicit contraction at a significantly higher rate than light alone | Contraction peaks relative to light stimulus ([1]; Protocol II, with light): occasionally follow stimuli | Signaling / contraction in Hydra (summary) [1]: Small responses were observed | Contraction peaks relative to sham stimulus [1]: do not occur in concert with sham stimulus | Success Rate (contractile response rate) ([1]; with light, Protocol II): 38% | Total Null ([1]; with light, Protocol II): 2 | Total Successes (contractile responses) ([1]; with light, Protocol II): 18 | Success Rate (contractile response rate) ([1]; without light (sham)): 12% | Total Null ([1]; without light (sham)): 17 | Total Successes (contractile responses) ([1]; without light (sham)): 12 | ICW delay (response) time [2]: 15.46 s | Regional ICW upon body column stimulation [2]: not significantly different from solvent-only controls

CC1Cc2ccc3ccccc3c2C1=C1c2ccccc2Sc2cc(NCCN(C)C)ccc21 (centres unmarked) [MM 1]
Contraction rate compared with light alone [1]: at a significantly higher rate than light alone | Contraction peaks relative to light stimulus ([1]; Protocol II, with light): most often occur in concert with stimuli | Contraction peaks relative to sham stimulus [1]: do not occur in concert with sham stimulus | Success Rate (contractile response rate) ([1]; with light, Protocol II): 68% | Total Null ([1]; with light, Protocol II): 14 | Total Successes (contractile responses) ([1]; with light, Protocol II): 48 | Success Rate (contractile response rate) ([1]; without light (sham)): 29% | Total Null ([1]; without light (sham)): 28 | Total Successes (contractile responses) ([1]; without light (sham)): 13 | ICW delay (response) time [2]: 12.76 s | Regional ICW upon body column stimulation [2]: consistently elicited robust regional ICW

CN(C)CCNc1ccc2c(c1)Sc1ccccc1C2=C1CCc2ccc3ccccc3c21 [MM 4]
Contraction rate compared with light alone [1]: more effective than light alone | Contraction peaks relative to light stimulus ([1]; Protocol II, with light): most often occur in concert with stimuli | Signaling / contraction in Hydra (summary) [1]: able to drive non-trivial signaling behavior in vivo | Contraction peaks relative to sham stimulus [1]: do not occur in concert with sham stimulus | Success Rate (contractile response rate) ([1]; with light, Protocol II): 65% | Total Null ([1]; with light, Protocol II): 5 | Total Successes (contractile responses) ([1]; with light, Protocol II): 36 | Success Rate (contractile response rate) ([1]; without light (sham)): 20% | Total Null ([1]; without light (sham)): 15 | Total Successes (contractile responses) ([1]; without light (sham)): 6 | ICW delay (response) time [2]: 16.6 s | Regional ICW upon body column stimulation [2]: consistently elicited robust regional ICW; also recorded: elicited regional ICW in Hydra despite causing only weak responses in vitro
